Common to all, as to test: growth of human tumour cells (NCI), 48 h
In test [1] the test system is 786-0.
Test [2] concerns NCI-H460.
Test [3] deals with MDA-N.
The test system of test [4] is MDA-MB-435.
Test [5] deals with CAKI-1.
Test [6] relates to MOLT-4.
Test [7] has as its system HCT-116.
The test system of test [8] is A549.
Test [9] deals with HCC 2998.
In test [10] the test system is PC-3.
The test system of test [11] is BT-549.
Test [12] deals with SK-MEL-2.
The subject of test [13] is CCRF-CEM.
Test [14] relates to MCF7.
The subject of test [15] is HT-29.
Test [16] has as its system MDA-MB-231.
Test [17] has as its system K562.
Test [18] has as its system NCI-H522.
The subject of test [19] is T47D.
In test [20] the test system is SN12C.

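Values below derive from 48-hour exposures of cells grown in 96-well plates, with endpoints linearly interpolated between the two concentrations bracketing the appropriate inhibition level. Abbreviation: GI50, concentration required for 50% inhibition of growth.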 Calls of active or inactive are those of the source. Cut-off read from the data, not from the text of the source: active = GI50 up to about 1.1 µM and inactive = higher.

Take `COc1cc2c(cc1OCCCNC(=O)c1cc3ccccc3[nH]1)N=C[C@@H]1CCCN1C2=O`: the GI50 in test [1] is 0.237 µM (active); in test [2] it was 0.675 µM (active); in test [3], 0.254 µM (active); in test [4] it was 0.243 µM (active); in test [5] it was 0.296 µM (active); in test [6], 0.125 µM (active). Moreover, the GI50 in [7] was 0.24 µM (active); in test [8] it was 0.632 µM (active); in [9], 0.664 µM (active); in [10] it was 0.358 µM (active); in [11], 0.0736 µM (active); in [12], 0.179 µM (active). The GI50 was 0.193 µM (active) in test [13]; 0.258 µM (active) in test [14]; 0.296 µM (active) in test [15]; 0.466 µM (active) in test [16]; 0.243 µM (active) in test [17]; 0.0141 µM (active) in [18]. Also, the results for the GI50 in test [19] and in test [20] were 0.229 µM (active) and 0.409 µM (active), respectively.

Regarding `CC(C)(C)c1cc(C(P(=O)(c2ccccc2)c2ccccc2)P(=O)(c2ccccc2)c2ccccc2)cc(C(C)(C)C)c1O`, the GI50 in [1] is 2.8 µM (inactive); in test [2], 2.11 µM (inactive); in [3], 1.91 µM (inactive); in [4], 1.9 µM (inactive); in test [5], 3.85 µM (inactive); in test [6], 2.88 µM (inactive). Further, the GI50 in test [7] is 1.58 µM (inactive); in test [8], 2.89 µM (inactive); in test [9], 1.72 µM (inactive); in [10], 2.67 µM (inactive); in test [11] it was 3.36 µM (inactive); in test [12] it was 1.87 µM (inactive). Moreover, the GI50 in [13] was 2.21 µM (inactive); in test [14], 2.28 µM (inactive); in [15], 2.08 µM (inactive); in test [16], 2.76 µM (inactive); in test [17] it was 3.42 µM (inactive); in test [18] it was 2.28 µM (inactive). In addition, the figures for the GI50 in test [19] and in test [20] were 2.9 µM (inactive) and 3.39 µM (inactive), respectively.

As to `N#C/C(=C\c1ccc(Cl)cc1)c1nc(-c2cc3ccccc3oc2=O)cs1`, the GI50 is 30.3 µM (inactive) in test [1]; 42.6 µM (inactive) in test [2]; 59.8 µM (inactive) in [3]; > 100 µM (inactive) in test [4]; > 100 µM (inactive) in [5]; > 100 µM (inactive) in [6]. The GI50 in test [7] was 67.6 µM (inactive); in test [8], 86.5 µM (inactive); in [9], 57.5 µM (inactive); in test [10], > 100 µM (inactive); in test [11] it was 14.9 µM (inactive); in test [12], > 100 µM (inactive). In addition, the GI50 in [13] was > 100 µM (inactive); in test [14] it was > 100 µM (inactive); in [15], > 100 µM (inactive); in test [16], 22 µM (inactive); in test [17] it was > 100 µM (inactive); in test [18], 15.6 µM (inactive). The GI50 was 44 µM (inactive) in test [19] and 70.3 µM (inactive) in test [20].

Take `C[n+]1cn(C2=C([N-]S(=O)(=O)c3ccccc3)C(=O)c3ccccc3C2=O)c2ccccc21`: the GI50 in [1] is 48.4 µM (inactive); in [2] it was 16.8 µM (inactive); in test [3] it was 12.8 µM (inactive); in test [4], 2.79 µM (inactive); in [5] it was > 100 µM (inactive); in test [6], 23.2 µM (inactive). In addition, the GI50 was 22.9 µM (inactive) in [7]; 85.9 µM (inactive) in test [8]; 18.9 µM (inactive) in test [9]; 27.9 µM (inactive) in [10]; 20.9 µM (inactive) in test [11]; 11.5 µM (inactive) in test [12]. The GI50 in test [13] was 39.6 µM (inactive); in [14] it was 22.1 µM (inactive); in test [15] it was 6.67 µM (inactive); in [16], 20.1 µM (inactive); in test [17] it was 29.9 µM (inactive); in test [18], 11.9 µM (inactive). The GI50 in [19] was 34.1 µM (inactive); in [20], 31.3 µM (inactive).

As to `CN1C(=O)C(O)CC1c1ccc(C(F)(F)F)cc1` (stereo not given), the GI50 in test [1], in [2], in test [3], in [4], in test [5] and in [6] was > 100 µM (inactive) throughout. For the same compound, the GI50 in test [7], in test [8], in [9], in test [10], in [11] and in [12] was > 100 µM (inactive) in each case. In addition, the GI50 in test [13], in test [14], in test [15], in test [16], in [17] and in test [18] was > 100 µM (inactive) each time. The GI50 in [19] and in [20] was > 100 µM (inactive) throughout.

On to `NS(=O)(=O)c1ccc(NC(=O)c2cccc3cc4ccccc4nc23)cc1`, for which the GI50 in test [1] is 12.8 µM (inactive); in test [2], 5.02 µM (inactive); in test [3], 13 µM (inactive); in test [4], 34.3 µM (inactive); in test [5], 10.1 µM (inactive); in [6], 2.7 µM (inactive). Moreover, the GI50 is 4.69 µM (inactive) in test [7]; 10 µM (inactive) in test [8]; > 100 µM (inactive) in test [9]; 37.3 µM (inactive) in [10]; 42.4 µM (inactive) in test [11]; > 100 µM (inactive) in test [12]. The GI50 is 7.71 µM (inactive) in test [13]; 6.68 µM (inactive) in [14]; 8.3 µM (inactive) in [15]; > 100 µM (inactive) in test [16]; 30.1 µM (inactive) in [17]; 17.1 µM (inactive) in [18]. In addition, the GI50 is 96.6 µM (inactive) in test [19] and 20.8 µM (inactive) in test [20].

For the compound `CC(C)(C)C1=CC(=CC=C2C=CN(CCCCCCCCCCCO)C=C2)C=C(C(C)(C)C)C1=O`, the GI50 in test [1] is 1.26 µM (inactive); in test [2] it was 2.01 µM (inactive); in test [3], 1.87 µM (inactive); in [4] it was 1.7 µM (inactive); in test [5], 2.48 µM (inactive); in [6], 1.32 µM (inactive). Further, the GI50 was 0.951 µM (active) in test [7]; 1.62 µM (inactive) in test [8]; 0.838 µM (active) in [9]; 1.69 µM (inactive) in test [10]; 2.12 µM (inactive) in test [11]; 1.83 µM (inactive) in test [12]. Besides, the GI50 in [13] was 0.652 µM (active); in test [14], 0.796 µM (active); in test [15], 3.37 µM (inactive); in test [16] it was 1.63 µM (inactive); in test [17] it was 1.06 µM (active); in test [18] it was 0.453 µM (active). Also, the GI50 is 0.498 µM (active) in test [19] and 1.25 µM (inactive) in test [20].

In the case of `CCCCC[C@@H]1OCO[C@@]2(C)/C=C(C)\C=C/C(=O)O[C@H]([C@@H](C)[C@@H](O)[C@H](C)[C@@]3(O)C[C@@H](O[C@H]4C[C@@H](O)[C@H](O)[C@@H](C)O4)[C@H](C)[C@@H](C)O3)[C@@H](OC)/C=C\C=C(\C)C[C@@H]1[C@@H]2O` (stereo in doubt), the GI50 in test [1], in [2], in [3], in test [4], in test [5] and in test [6] was < 0.005 µM (active) in each case. For the same compound, the GI50 in test [7] is < 0.005 µM (active); in test [8] it was < 0.005 µM (active); in test [9] it was < 0.005 µM (active); in test [10] it was < 0.005 µM (active); in [11], 0.5 µM (active); in test [12], < 0.005 µM (active). The GI50 in [13] was < 0.005 µM (active); in [14], < 0.005 µM (active); in test [15] it was < 0.005 µM (active); in [16], 0.0239 µM (active); in test [17], < 0.005 µM (active); in [18], < 0.005 µM (active). The GI50 is < 0.005 µM (active) in test [19] and 0.0231 µM (active) in [20].

On to `C/C(=C1/N=C(c2ccccc2)OC1=O)c1ccc(C)cc1`, for which the GI50 in test [1], in test [2], in test [3], in test [4], in [5] and in [6] was > 100 µM (inactive) throughout. Also, the GI50 in test [7], in test [8], in test [9], in [10], in test [11] and in test [12] was > 100 µM (inactive) each time. Moreover, the GI50 in [13], in test [14], in [15], in test [16], in test [17] and in [18] was > 100 µM (inactive) throughout. In addition, the GI50 in test [19] and in test [20] was > 100 µM (inactive) each time.

In the case of `Clc1cc(Cl)cc(C2ON=C(c3ccccc3)N2C23CC4CC(CC(C4)C2)C3)c1` (stereo not given), the GI50 in test [1], in test [2], in [3], in test [4], in [5] and in [6] was > 10 µM (inactive) throughout. For the same compound, the GI50 in [7], in [8], in [9], in test [10], in test [11] and in test [12] was > 10 µM (inactive) each time. The GI50 in test [13], in test [14], in test [15], in [16], in [17] and in test [18] was > 10 µM (inactive) throughout. In addition, the GI50 in test [19] and in test [20] was > 10 µM (inactive) in each case.

The values are drawn from ChEMBL document CHEMBL1201862, “PubChem BioAssay data set” (2004).
